The values that follow come from paper PMC9400670, “Establishing the selective phospholipid membrane coordination, permeation and lysis properties for a series of ‘druggable’ supramolecular self-associating antimicrobial amphiphiles” (Chemical Science, 2022).

One test deals with PG lipid vesicles. The test is described as follows: Synthetic phospholipid vesicle membrane binding assay (fluorescence polarisation), PG vesicles. Particulars: lipid vesicles added to SSA (0.15 mM); n = 3; error = standard error; SSA alone set to 100 mP. The method, then:
For intrinsically fluorescent SSAs 5, 6 and 8–12, FP titration experiments enabled the observation of SSA: phospholipid vesicle interactions. Here, an increase in FP value indicates an increase in the apparent size of the SSA as it interacts with the phospholipid vesicle. […]
Fluorescence polarisation: Lipid films were resuspended in Buffer (150 mM KCl, 10 mM HEPES, pH 7.4, 2 mM EGTA) and subjected to 9 freeze-thaw cycles in liquid nitrogen and extruded 20 times through a 200 nm polycarbonate membrane. Black bottom 96-well plates were prepared by serially diluting desired vesicle solution across the plate, the appropriate SSA solution (100 µL, 0.15 mM) was added to each well to give a total well volume of 200 µL. Fluorescent SSA solutions were set to a FP value of 100 mP. Data were acquired in endpoint mode. […]

The test system of a further test is PC nanodiscs. The test is described as follows: Phospholipid nanodisc 1H NMR CPMG coordination assay, PC nanodiscs. In kind it is binding. Particulars: SSA 100 µM. The text has this:
Finally, to establish how any single SSA structural variation affects the coordination of an individual salt component to the surface of a phospholipid membrane, the binding of the anionic and cationic components of SSAs 5–12 with nanodiscs comprised of PC, PG or the PE : PG mix (Table 2) was studied. Nanodiscs were synthesised from synthetic vesicles of the relevant phospholipid composition. For full synthetic procedures and nanodisc characterisation please see ESI (Section 13). ^†[34,35]
Styrene-maleic acid (SMA) nanodiscs are small biomimetic scaffolds with a hydrodynamic diameter ≈ 10 nm. They consist of a single disc-shaped planar phospholipid bilayer, ‘belted’ in this instance with a synthetic SMA co-polymer. Here nanodiscs of a specific phospholipid composition were titrated against a solution of SSAs 5–12 (0.10 mM) in a sodium phosphate buffer (20 mM) with NaCl (20 mM) at pH 7.4. This solution was supplemented with 5% D2O, to enable NMR locking and 4,4-dimethyl4-silapentane-1-sulfonic acid (DSS – 0.02 mM) to act as an internal standard. The nanodiscs were then titrated against the SSA, while the SSA concentration was maintained as constant, well below the CMC (Table 3).[38] A 1D ^1H NMR with a Carr–Purcell–Meiboom–Gill sequence (CPMG) filter (300 ms),[36,48] modified with a watergate element was then obtained for each experimental data point. The watergate element was used to allow suppression of the water signal, whereas the CPMG filter enabled the suppression of those resonances from molecular species with long correlation times, which in this instance correlate to the signals of those SSAs coordinated to the nanodisc, rather than those which exist as free species in solution. Comparative integration of the resonances corresponding to the SSA cation or anion, standardised against the DSS internal standard, permits the percentage of the individual SSA components coordinated to the phospholipid nanodisc to be established with respect to increasing nanodisc concentration.
However, when considering the 1/EC50 for the SSA cationic component (Fig. 10b), the reverse is true. This is perhaps expected, but nevertheless despite the identical experimental conditions, including the same TBA counter cation across SSAs 5–12, there is a marked difference in the 1/EC50 obtained, where the only difference is the SSA anion present. This is most noticeable for the series of SSA titrations involving the PE : PG mix (Table 2) nanodiscs. The only variation within this set of titrations is the structure of the SSA anion; we therefore conclude that the SSA anion is influencing SSA cation nanodisc coordination events. This observation provides evidence for the presence of further complex interactions informing SSA:nanodisc coordination processes. […]
Data were acquired in endpoint mode. All experiments were repeated in triplicate […]
Nanodisc preparation: Lipid films were resuspended in Buffer (20 mM NaCl, 20 mM NaH 2PO4, pH 7.4) and sonicated for 1 hour, at a 5:1 ratio, SMA was added and incubated at 37 °C for 1 hour. Dialysed overnight in 5 L of the same buffer in 10 KDa cut-off dialysis tubing, concentrated, and underwent gel filtration size exclusion chromatography on a Superdex 200 10/300 GL column (GE Healthcare) in the same buffer, whilst monitoring absorbance at 260 nm. Nanodisc quantification carried out via monitoring of absorbance at 260 nm using a calibration curve.2
1H NMR CPMG: 1H NMR CPMG3,4 spectra were obtained with a Bruker Avance III […] spectrometer equipped with a TCIP cryoprobe at 298 K. Samples were supplemented with 5 % D 2O and 0.02 mM 4,4-dimethyl4-silapentane-1-sulfonic acid (DSS). The standard zgprcpmg pulse sequence from the Bruker library was modified with a watergate element to allow suppressi on of the water signal and was used for all experiments. Although this sequence is readily obtainable, we are happy to provide it on request. The P1 pulses were 9 µs at a power of 7.9 W. Presaturation was applied between […]

Setting [1] is: experimental endpoint 4.00 µM nanodisc, read-out: EC50 PC, cationic SSA component.
The mark [2] stands for this setting: concentration of nanodisc coordinating 50 % of the SSA anion, Hill Plot fit, Vmax fixed 100 %, read-out: EC50 PC, anionic SSA component.

pEC50: −log10 of the molar value. Read-outs that look alike come from different tables or passages of the source.

With `Cc1ccc2nc(-c3ccc(NC(=O)NCCC(=O)O)cc3)sc2c1` [SSA 9], the “increase in FP, PG” value with PG lipid vesicles worked out at 47 ± 1 mP. In addition, the negative-log EC50 (pEC50) with PC nanodiscs (setting [1]) was less than 5.40; in the test on PC nanodiscs (setting [2]) it was 6.57.
On to `O=C(NCS(=O)(=O)O)Nc1ccccc1-c1nc2ccccc2s1` [SSA 5], for which, in the test on PG lipid vesicles, the “increase in FP, PG” value was 43 ± 9 mP.
As for `O=C(NCS(=O)(=O)O)Nc1ccc(-c2nc3ccccc3s2)cc1` [SSA 8], in the test with PG lipid vesicles, the “increase in FP, PG” value worked out at 29 ± 1 mP. The pEC50 in the test with PC nanodiscs (setting [2]) is 5.58.
In the same order, the values of `Cc1ccc2nc(-c3ccc(NC(=O)NCS(=O)(=O)O)cc3)sc2c1` [SSA 6] are 40 ± 4 mP and 6.44.
Consider `Cc1ccc2nc(-c3ccc(NC(=O)NCC(=O)O)cc3)sc2c1` [SSA 11], for which the “increase in FP, PG” value in the test on PG lipid vesicles was determined as 209 ± 4 mP. In addition, the pEC50 with PC nanodiscs (setting [2]) is 6.31.
Turning to `Cc1ccc2nc(-c3ccc(NC(=S)NCS(=O)(=O)O)cc3)sc2c1` [SSA 12], the “increase in FP, PG” value with PG lipid vesicles was 126 ± 5 mP. The pEC50 is 6.85 in the test with PC nanodiscs (setting [2]) and 5.65 in the test on PC nanodiscs (concentration of nanodisc coordinating 50 % of the SSA cation, Hill Plot fit, Vmax fixed 100 %, read-out: EC50 PC, cationic SSA component).
As for `Cc1ccc2nc(-c3ccc(NC(=O)NCCCS(=O)(=O)O)cc3)sc2c1` [SSA 10], the “increase in FP, PG” value in the test with PG lipid vesicles is recorded as 29 ± 2 mP. Moreover, the pEC50 with PC nanodiscs (setting [1]) is less than 5.40; in the test with PC nanodiscs (setting [2]), 6.44.

As usually defined, the pEC50 is −log10 of the EC50, conventionally taken in molar units.
